Values after ≈ are worked out from the molar mass of the structure shown.
Legend:
[1] = Protonation constants by potentiometric titration; type: physicochemical; conditions: 5 mM ligand in 0.15 M KCl
Procedure: The protonation constants for C2E2 were determined by preparing a 5 mM solution of free ligand in 0.15 M KCl. The constants were calculated from three replicates, with each experiment consisting of a titration with acid, followed by a titration with base. After each addition of titrant, a 30 second equilibration time passed before pH measurement with a Seven Easy pH meter and (Ag/AgCl reference) glass electrode (Metler Tolledo). At the end of the titrations, the presence of C2E2 was confirmed by HPLC-CAD. Evaluation of the titration curve for C2E2 (FIG. 31) identified 6 pKa values that correspond with the three tertiary amines and three carboxylic acids. The values were determined by refinement using […] software. The pKa values determined for C2E2 are consistent with DTPA analogues previously investigated for use as MRI contrast agents with two carboxylic acids are functionalized such as DTPA-BMA and DTPA-BBA (Rizkalla, E. N., et al., Inorganic Chemistry, 32, 582-586, (1993) and Geraldes C. F., et al., Journal of the Chemical Society-Dalton Transactions, 327-335 (1995)).

[2] = Body weights and clinical observations in the rat single dose decorporation study; type: in vivo, Sprague Dawley rat; conditions: for Mean body weight: in g (unit assumed)
Source text: Each rat was weighed at contamination (Day 0) and the terminal body weight (Day 7) was taken at necropsy.

[3] = Aqueous solubility, preliminary test; type: physicochemical; conditions: thermodynamic from solid; distilled water, 10 minutes stirring, visual check, sample JH012B; read-out: Approximate solubility
Procedure: A small sample of C2E2 (0.1 g, JH012B) was weighed out and placed in a 25 mL graduated cylinder. Increasing volumes of distilled water were added according to the chart below:
After each addition of the indicated amount of water, the mixture was stirred for 10 minutes and visually checked for any dissolved parts of the sample. […] The approximate solubility is therefore 10-50 g/L.

CCOC(=O)CN(CCN(CCN(CC(=O)O)CC(=O)OCC)CC(=O)O)CC(=O)O [C2E2, 6,9-bis(carboxymethyl)-3-(2-ethoxy-2-oxoethyl)-11-oxo-12-oxa-3,6,9-triazatetradecan-1-oic acid]
PKa2 [1]: 4.68 ± 0.02 | pKa1 [1]: 9.40 | pKa3 [1]: 3.52 ± 0.03 | pKa4 [1]: 1.87 ± 0.05 | pKa5 [1]: 1.76 | pKa6 [1]: 1.45 | Mean Percentage Body Weight Change ([2]; Female, C2E2 200 mg/kg, Fasted): 0.8 ± 2.2% | Mean Percentage Body Weight Change ([2]; Female, C2E2 200 mg/kg, ad libitum): 0.0 ± 2.5% | Mean Percentage Body Weight Change ([2]; Female, C2E2 600 mg/kg, Fasted): −2.3 ± 3.3% | Mean Percentage Body Weight Change ([2]; Female, C2E2 600 mg/kg, ad libitum): 1.1 ± 1.2% | Mean Percentage Body Weight Change ([2]; Female, C2E2 1000 mg/kg, Fasted): −5.0 ± 2.9% | Mean Percentage Body Weight Change ([2]; Female, C2E2 1000 mg/kg, ad libitum): 0.7 ± 2.1% | Mean Percentage Body Weight Change ([2]; Male, C2E2 200 mg/kg, Fasted): 8.1 ± 8.4% | Mean Percentage Body Weight Change ([2]; Male, C2E2 200 mg/kg, ad libitum): 10.4 ± 11.0% | Mean Percentage Body Weight Change ([2]; Male, C2E2 600 mg/kg, Fasted): 12.6 ± 3.1% | Mean Percentage Body Weight Change ([2]; Male, C2E2 600 mg/kg, ad libitum): 10.1 ± 3.1% | Mean Percentage Body Weight Change ([2]; Male, C2E2 1000 mg/kg, Fasted): 12.0 ± 4.8% | Mean Percentage Body Weight Change ([2]; Male, C2E2 1000 mg/kg, ad libitum): 10.6 ± 0.8% | Mean body weight ([2]; female rats, C2E2 200 mg/kg, Fasted, Day 0): 245.0 ± 11.6 | Mean body weight ([2]; female rats, C2E2 200 mg/kg, Fasted, Day 7 (terminal)): 246.8 ± 9.6 | Mean body weight ([2]; female rats, C2E2 200 mg/kg, ad libitum, Day 0): 276.8 ± 17.3 | Mean body weight ([2]; female rats, C2E2 200 mg/kg, ad libitum, Day 7 (terminal)): 276.5 ± 15.1 | Mean body weight ([2]; female rats, C2E2 600 mg/kg, Fasted, Day 0): 280.5 ± 28.0 | Mean body weight ([2]; female rats, C2E2 600 mg/kg, Fasted, Day 7 (terminal)): 273.5 ± 19.2 | Mean body weight ([2]; female rats, C2E2 600 mg/kg, ad libitum, Day 0): 247.0 ± 13.8 | Mean body weight ([2]; female rats, C2E2 600 mg/kg, ad libitum, Day 7 (terminal)): 249.7 ± 14.5 | Mean body weight ([2]; female rats, C2E2 1000 mg/kg, Fasted, Day 0): 276.3 ± 17.9 | Mean body weight ([2]; female rats, C2E2 1000 mg/kg, Fasted, Day 7 (terminal)): 262.7 ± 23.8 | Mean body weight ([2]; female rats, C2E2 1000 mg/kg, ad libitum, Day 0): 232.5 ± 19.3 | Mean body weight ([2]; female rats, C2E2 1000 mg/kg, ad libitum, Day 7 (terminal)): 234.2 ± 21.4 | Clinical observations ([2]; male and female rats, 200, 600, 1000 mg/kg single oral dose, 7 days): No adverse C2E2 exposure-related clinical observations | Mean body weight ([2]; male rats, C2E2 200 mg/kg, Fasted, Day 0): 291.3 ± 12.7 | Mean body weight ([2]; male rats, C2E2 200 mg/kg, Fasted, Day 7 (terminal)): 314.2 ± 14.4 | Mean body weight ([2]; male rats, C2E2 200 mg/kg, ad libitum, Day 0): 296.3 ± 9.4 | Mean body weight ([2]; male rats, C2E2 200 mg/kg, ad libitum, Day 7 (terminal)): 326.5 ± 25.7 | Mean body weight ([2]; male rats, C2E2 600 mg/kg, Fasted, Day 0): 275.9 ± 9.7 | Mean body weight ([2]; male rats, C2E2 600 mg/kg, Fasted, Day 7 (terminal)): 310.6 ± 9.1 | Mean body weight ([2]; male rats, C2E2 600 mg/kg, ad libitum, Day 0): 292.8 ± 5.1 | Mean body weight ([2]; male rats, C2E2 600 mg/kg, ad libitum, Day 7 (terminal)): 322.2 ± 6.4 | Mean body weight ([2]; male rats, C2E2 1000 mg/kg, Fasted, Day 0): 270.3 ± 5.8 | Mean body weight ([2]; male rats, C2E2 1000 mg/kg, Fasted, Day 7 (terminal)): 302.8 ± 14.2 | Mean body weight ([2]; male rats, C2E2 1000 mg/kg, ad libitum, Day 0): 290.5 ± 6.6 | Mean body weight ([2]; male rats, C2E2 1000 mg/kg, ad libitum, Day 7 (terminal)): 321.2 ± 6.5 | solubility at 10 min [3]: 10 to 50 mg/mL (≈ 22.2 to 111 mM)

— US9546129B2, “DTPA prodrugs, compositions thereof, and methods of using the same” (priority 2012, dated 2017)
